Laboratory results as given in patent US6083982A, “Natriuretic compounds” (Loma Linda University Medical, priority 1998, dated 2000).
Values joined by “and” are separate entries in the source; they are usually repeats but may differ in a detail not shown here. Equal entries are not always repeated. “Also recorded” adds a separate entry of the source.

Tests used:
Na^+ /K^+ -ATPase = Na^+ /K^+ -ATPase (Bos taurus, UniProt Q08DA1); assay: Na+/K+-ATPase (sodium pump) inhibition assay, 86Rb+ uptake in MDBK cells; assay type: cell-based, bovine (Madin-Darby bovine kidney cells); settings: 0.2-200 ng/well
Method: The assay in MDBK cells has been described previously (see Benaksas et al., above). The assay is described briefly here. Madin-Darby bovine kidney (MDBK) cells (ATCC:CCL22) were maintained in Dulbecco's Modified Eagle's Medium (DMEM) with 5% Fetal Bovine Serum and 5% Bovine Calf Serum in a 5% CO2 /95% humidified air atmosphere at 37° C. and split (1:2) once per week.
One day before the assay, cells were plated in a 96-well plate at a density of 5×10^5 cells/well in DMEM with serum. On the day of the assay the medium was removed and the cells washed with phosphate buffered saline (PBS) before addition of 100 μL of assay media (122 mM NaCl, 1.8 mM CaCl2, 0.8 mM MgSO4, 24 mM NaHCO3, 1 mM sodium pyruvate, 25 mM glucose, 14 mM glycylglycine, 0.2% phenol red, 8 mM Na2 HPO4 1.15 mM KH2 PO4, pH 8.0) and 100 μl of sample. The plate was preincubated for 30 minutes at 37° C., then chilled on ice for 10 minutes. To each well was added 0.15 μCi ^86 RbCl (Amersham) in 10 μL of assay media. The plate was then incubated at 37° C. for 10 minutes. A portion (100 μL) of the supernatant was counted with 0.5 mL of scintillation cocktail in a liquid scintillation counter. As a control for Na^+ /K^+ -ATPase inhibition, a dose response curve for ouabain in the range of 10^-5 -10^-8 M was obtained. Intra-experiment coefficient of variation for ouabain was 3-15%. […]

[1] = Chemical stability (physical properties); assay type: physicochemical
conscious rats = assay: In vivo bioassay for natriuresis, kaliuresis, diuresis and mean arterial pressure in conscious rats; design: species or system female Sprague-Dawley rats; settings: for Natriuretic Response (R): Rn = SR/FR, >0.67 active
Method: Female Sprague-Dawley (Harlan) rats (200-250 g) were cannulated in the femoral artery and vein for monitoring of mean arterial pressure (MAP) and infusion of saline and samples, respectively. The bladder was catheterized for collection of urine in ten-minute periods. Furosemide (0.4 mg/kg bwt; 1 mg/mL in 0.17% saline) was infused as a positive control at the beginning of the sixth ten-minute period. The sample was infused at the beginning of the seventeenth ten-minute period. Urine was collected for another 150 minutes. The volume of the urine was determined gravimetrically and the Na^+ and K^+ concentrations determined with a Beckman E2A electrolyte analyzer.
The natriuretic response of a sample was normalized to the dose of furosemide infused. The net sodium excretion for the infusion of furosemide or sample was calculated as follows. The median sodium excretion value (μmoles Na^+ /10 minute period) for the five periods before infusion of furosemide or sample was used to establish a baseline value for the calculation of ΔUNaV(=μmoles Na^+ period-baseline μmoles Na^+) for administration of either furosemide or sample respectively. The sum of ΔUNaV for the four periods following infusion of furosemide was the net sodium excreted for furosemide, defined as FR. The sum of ΔUNaV for the fifteen periods following infusion of the sample was the net sodium excreted for the sample defined as SR. The natriuretic ratio Rn (or normalized natriuretic response) of a sample was calculated by dividing SR by FR(Rn =SR/FR).

[2] = literature statement; cited from earlier work

Q: What does the source list for `Cc1c(O)cc2c(c1C)OC(C)(CCC(=O)O)CC2` (stereo not drawn) [LLU-α, 6-hydroxy-2,7,8-trimethylchroman-2-propanoic acid]?
A: Na^+ /K^+ -ATPase inhibition (Na^+ /K^+ -ATPase): no inhibition; free radical scavenging (Free radical scavenging): cardio-selective free radical scavenger; stability in CDCl3 ([1]; CDCl3): Unstable; stability in dilute base ([1]; dilute base): instability in dilute base; also recorded: Unstable; natriuretic activity (conscious rats; 8 μg/kg, further purified on acetic acid/acetonitrile RP-HPLC (seventh step)): active; natriuretic dose-response curve (conscious rats; Table III): narrow and biphasic; natriuretic activity of isolates (conscious rats; crude isolates from second RP-HPLC step): natriuretically active; sodium excretion in urine relative to potassium excretion (conscious rats; in mammals): increasing sodium excretion in the urine in mammals without a corresponding increase in potassium excretion; kaliuresis (potassium excretion) on infusion (conscious rats; infused into conscious rats): no detectable kaliuresis; natriuresis on infusion (conscious rats; infused into the rat (FIGS. 3A and B)): sustained natriuresis; effect on blood pressure (conscious rats; infused into the rat, data not shown): no effect on blood pressure; change in mean arterial pressure (conscious rats; on infusion, conscious rats): does not cause a significant change in mean arterial pressure; also recorded: Neither LLU-α nor -γ caused a significant change in mean arterial pressure; natriuretic activity at lower or higher doses (conscious rats; partially purified (sixth purification step), doses below or above 4-8 μg/kg): no activity; natriuretically active dose range (conscious rats; partially purified, silica gel HPLC (sixth purification step)): 4 to 8 µg/kg; Natriuretic Response (R) (conscious rats; silica gel HPLC fraction 17, dose 0.2 μg): -0.14; Natriuretic Response (R) (conscious rats; silica gel HPLC fraction 17, dose 1 μg): 0.27; Natriuretic Response (R) (conscious rats; silica gel HPLC fraction 17, dose 2 μg): 1.14 and 0.75; Natriuretic Response (R) (conscious rats; silica gel HPLC fraction 17, dose 10 μg): 0.26; Natriuretic Response (R) (conscious rats; silica gel HPLC fraction 18, dose 56.4 μg): 0.23; Natriuretic Response (R) (conscious rats; silica gel HPLC fraction 18, dose 224 μg): 0.02; Natriuretic Response (R) (conscious rats; silica gel HPLC fraction 19, dose 0.2 μg): 0.24; Natriuretic Response (R) (conscious rats; silica gel HPLC fraction 19, dose 1 μg): 0.93; Natriuretic Response (R) (conscious rats; silica gel HPLC fraction 19, dose 10 μg): 0.09

Q: Which natriuretic activity [2] does the source give for `C[C@@H]1O[C@@H](O[C@H]2C[C@@H](O)[C@]3(CO)[C@H]4[C@H](O)C[C@]5(C)[C@@H](C6=CC(=O)OC6)CC[C@]5(O)[C@@H]4CC[C@]3(O)C2)[C@H](O)[C@H](O)[C@H]1O` [Ouabain] here?
A: not, however, natriuretic

Q: With `C[C@H]1O[C@@H](O[C@H]2[C@@H](O)C[C@H](O[C@H]3[C@@H](O)C[C@H](O[C@H]4CC[C@@]5(C)[C@H](CC[C@@H]6[C@@H]5C[C@@H](O)[C@]5(C)[C@@H](C7=CC(=O)OC7)CC[C@]65O)C4)O[C@@H]3C)O[C@@H]2C)C[C@H](O)[C@@H]1O` [digoxin] as the molecule, how does the natriuretic activity [2] read?
A: not, however, natriuretic
